From ChEMBL document CHEMBL3751701, “Class I and Class II Lanthipeptides Produced by Bacillus spp” (2015)
≈ marks a conversion by molar mass, not a printed value. Each block holds one compound with its values, some of them ahead of it.

Experiments:
Staphylococcus aureus [1] = test: Antibacterial activity against methicillin-resistant Staphylococcus aureus ATCC 43300 by microdilution method; assay type: functional
Staphylococcus aureus [2] = test: Antibacterial activity against Staphylococcus aureus ATCC 29213 by microdilution method; assay type: functional
Kocuria rhizophila = test: Antibacterial activity against Micrococcus luteus ATCC 9341 by microdilution method; assay type: functional
Enterococcus faecalis [3] = test: Antibacterial activity against Enterococcus faecalis ATCC 29212 by microdilution method; assay type: functional
Enterococcus faecalis [4] = test: Antibacterial activity against Enterococcus faecalis ATCC 51299 by microdilution method; assay type: functional
Bacillus pumilus = test: Antibacterial activity against Bacillus pumilus SCG I after 120 mins by agar well diffusion method; assay type: functional; settings: 2 h
Bacillus thuringiensis [5] = test: Antibacterial activity against Bacillus thuringiensis BMB171 after 120 mins by agar well diffusion method; assay type: functional; settings: BMB171, 2 h
Staphylococcus sciuri = test: Antibacterial activity against Staphylococcus sciuri Bom1 after 120 mins by agar well diffusion method; settings: Bom1, 2 h
Bacillus thuringiensis [6] = test: Antibacterial activity against Bacillus thuringiensis YBT-1518 after 120 mins by agar well diffusion method; assay type: functional; settings: YBT-1518, 2 h
Bacillus subtilis [7] = test: Antibacterial activity against Bacillus subtilis BSn5 after 120 mins by agar well diffusion method; assay type: functional; settings: BSn5, 2 h
Bacillus cereus = test: Antibacterial activity against Bacillus cereus UW85 after 120 mins by agar well diffusion method; assay type: functional; settings: UW85, 2 h
Bacillus subtilis [8] = test: Antibacterial activity against Bacillus subtilis 168 after 120 mins by agar well diffusion method; assay type: functional; settings: subsp. subtilis str. 168, 2 h
Microbacterium = test: Antibacterial activity against Microbacterium Pri2 after 120 mins by agar well diffusion method; assay type: functional; settings: Pri2, 2 h
Bacillus firmus = test: Antibacterial activity against Bacillus firmus BCRC 11944 after 120 mins by agar well diffusion method; assay type: functional; settings: Cytobacillus firmus, BCRC 11944, 2 h
Enterococcus faecalis [9] = test: Antibacterial activity against Enterococcus faecalis Bom3 after 120 mins by agar well diffusion method; assay type: functional; settings: Bom3, 2 h
Micrococcus luteus = test: Antibacterial activity against Micrococcus luteus ATCC 4698 after 18 to 20 hrs by agar well diffusion method; assay type: functional; settings: NCTC 2665
[10] = Ratio of MIC for Enterococcus faecalis ATCC 29212 to MIC for Enterococcus faecium ATCC 19579; assay type: functional
Streptococcus pneumoniae = test: Antibacterial activity against Streptococcus pneumoniae BAA-255 after 18 to 20 hrs by agar well diffusion method; assay type: functional
Staphylococcus aureus [11] = test: Antibacterial activity against methicillin-resistant Staphylococcus aureus R33 after 18 to 20 hrs by agar well diffusion method; assay type: functional
Staphylococcus aureus [12] = test: Antibacterial activity against Staphylococcus aureus 137/93A after 18 hrs by broth microdilution method; assay type: functional
Enterococcus faecium [13] = test: Antibacterial activity against Enterococcus faecium ATCC 19579 after 18 to 20 hrs by agar well diffusion method; assay type: functional
Staphylococcus aureus [14] = test: Ratio of MIC for Staphylococcus aureus 137/93A to MIC for Staphylococcus aureus SG511; assay type: functional
Enterococcus faecalis [15] = test: Antibacterial activity against Enterococcus faecalis ATCC 29212 after 18 to 20 hrs by agar well diffusion method; assay type: functional
Staphylococcus aureus [16] = test: Antibacterial activity against Staphylococcus aureus SG511 after 18 hrs by broth microdilution method; assay type: functional; settings: SG511, 18 h
[17] = test system: Staphylococcus epidermidis; test: Antibacterial activity against Staphylococcus epidermidis NCTC 11047 after 18 to 20 hrs by agar well diffusion method; assay type: functional
Staphylococcus aureus [18] = test: Antibacterial activity against Staphylococcus aureus SH1000 after 18 to 20 hrs by agar well diffusion method; assay type: functional
Enterococcus faecium [19] = test: Antibacterial activity against vancomycin-resistant Enterococcus faecium 7131121 after 18 to 20 hrs by agar well diffusion method; assay type: functional
Staphylococcus aureus [20] = test: Antibacterial activity against Staphylococcus aureus 137/93G after 18 hrs by broth microdilution method; assay type: functional

Compound: C=C(NC(=O)[C@H](NC(=O)[C@@H](CCCCN)NC(=O)[C@@H]1CSC(C)C2NC(=O)[C@@H]([C@H](C)CC)NC(=O)C(NC(=O)[C@@H](CCC(N)=O)NC(=O)[C@@H](CC(C)C)NC(=O)[C@@H](Cc3ccccc3)NC(=O)[C@@H]3CSC(C)C(NC(=O)[C@H](NC(=O)[C@@H]4CSC(C)C(NC(=O)[C@H]5CSC[C@@H](NC(=O)[C@@H](CCCCN)NC(=O)[C@H](N)Cc6c[nH]c7ccccc67)C(=O)N[C@H](CCC(=O)O)C(=O)NC(=C)C(=O)N[C@H](C(C)C)C(=O)N5)C(=O)N5CCC[C@@H]5C(=O)NCC(=O)N4)C(C)C)C(=O)NCC(=O)N[C@@H](CC(C)C)C(=O)N[C@@H](CC(C)C)C(=O)N[C@H](CCC(N)=O)C(=O)N/C(=C\C)C(=O)N3)C(C)SC[C@@H](NC2=O)C(=O)N[C@H](CC(N)=O)C(=O)N1)[C@H](C)CC)C(=O)N[C@@H](CCCCN)C(=O)O (stereo partly drawn)
MIC (Staphylococcus aureus [1]): 2.32 µM (≈ 7.77 µg/mL) | MIC (Staphylococcus aureus [2]): 1.16 µM (≈ 3.89 µg/mL) | MIC (Kocuria rhizophila): 1.16 µM (≈ 3.89 µg/mL) | MIC (Enterococcus faecalis [3]): 4.84 µM (≈ 16.2 µg/mL) | MIC (Enterococcus faecalis [4]): 2.32 µM (≈ 7.77 µg/mL)

MIC (Bacillus pumilus): 0.65 µM (≈ 1.81 µg/mL) | MIC (Bacillus thuringiensis [5]): 1.3 µM (≈ 3.62 µg/mL) | MIC (Staphylococcus sciuri): 1.95 µM (≈ 5.44 µg/mL) | MIC (Bacillus thuringiensis [6]): 1.3 µM (≈ 3.62 µg/mL) | MIC (Bacillus subtilis [7]): 5.2 µM (≈ 14.5 µg/mL) | MIC (Bacillus cereus): 7.8 µM (≈ 21.7 µg/mL) | MIC (Bacillus subtilis [8]): 5.2 µM (≈ 14.5 µg/mL) | MIC (Microbacterium): 5.2 µM (≈ 14.5 µg/mL) | MIC (Bacillus firmus): 0.326 µM (≈ 0.909 µg/mL) | MIC (Enterococcus faecalis [9]): 2.6 µM (≈ 7.25 µg/mL)
Compound: C=C1NC(=O)[C@@H]2CSC(C)C(NC(=O)[C@@H]3CSC(C)C4NC(=O)CNC(=O)C(NC(=O)[C@H](CCCCN)NC(=O)[C@@H]5CSC[C@H](NC(=O)[C@@H](NC(=O)[C@H](CCCCN)NC(=O)[C@@H](NC(=O)[C@@H](NC(=O)/C(=C/C)NC(=O)/C(=C\C)NC(=O)[C@H](Cc6c[nH]c7ccccc67)NC(=O)C(=O)CC)[C@@H](C)CC)C(C)C)C(C)C)C(=O)N[C@@H](CCCCN)C(=O)N[C@@H](C)C(=O)N[C@@H](C(C)C)C(=O)N5)C(C)SC[C@H](NC4=O)C(=O)N[C@@H]([C@@H](C)CC)C(=O)N3)C(=O)N/C(=C\C)C(=O)N[C@@H](CSC[C@@H](C(=O)N[C@@H](CCCCN)C(=O)O)NC(=O)[C@H](CC(N)=O)NC1=O)C(=O)N2 (stereo partly drawn)

Compound: C=C1NC(=O)C2NC(=O)[C@H](CC(C)C)NC(=O)C(NC(=O)[C@@H]3CSC(C)[C@H](NC(=O)[C@H](Cc4ccccc4)NC(=O)C4NC(=O)[C@@H](N)CSC4C)C(=O)N[C@@H](CC(C)C)C(=O)N4CCC[C@H]4C(=O)NCC(=O)NCC(=O)NCC(=O)NCC(=O)N[C@@H](C(C)C)C(=O)N3)C(C)SC[C@@H](NC(=O)[C@H](CCC(=O)O)NC1=O)C(=O)N[C@@H]([C@H](C)CC)C(=O)N/C=C/SC2C (stereo partly drawn)
MIC (Micrococcus luteus): 0.657 µM (≈ 1.2 µg/mL) | Ratio [10]: 2 | MIC (Streptococcus pneumoniae): 1.1 µM (≈ 2 µg/mL) | MIC (Staphylococcus aureus [11]): 17.5 µM (≈ 32 µg/mL) | MIC (Staphylococcus aureus [12]): 19.2 µM (≈ 35 µg/mL) | MIC (Enterococcus faecium [13]): 17.5 µM (≈ 32 µg/mL) | Ratio (Staphylococcus aureus [14]): 35 | MIC (Enterococcus faecalis [15]): 35.1 µM (≈ 64 µg/mL) | MIC (Staphylococcus aureus [16]): 0.548 µM (≈ 1 µg/mL) | MIC [17]: 8.94 µM (≈ 16.3 µg/mL) | MIC (Staphylococcus aureus [18]): 17.5 µM (≈ 32 µg/mL) | MIC (Enterococcus faecium [19]): 35.1 µM (≈ 64 µg/mL) | MIC (Staphylococcus aureus [20]): 16.4 µM (≈ 30 µg/mL)
